From ChEMBL document CHEMBL4024780, “Discovery of Potent and Selective Allosteric Inhibitors of Protein Arginine Methyltransferase 3 (PRMT3)” (J Med Chem, 2018)

Tests used:
[1] = molecular target: T1, Protein arginine N-methyltransferase 3 (Homo sapiens, UniProt O60678)
Description: Inhibition of PRMT3 (unknown origin) using C-terminally biotinylated histone H4 as substrate in presence of [3H]S-adenosylmethionine by scintillation proximity assay

[2] = molecular target: T1, Protein arginine N-methyltransferase 3; assay: Binding affinity to beta galactosidase fused human PRMT3 (211 to 531 residues) expressed in human HEK293 cells after 6 hrs by InCELL hunter assay; assay type: cell-based
[3] = molecular target: T1, Protein arginine N-methyltransferase 3; assay: Inhibition of FLAG-tagged wild type human PRMT3 expressed in HEK293 cells assessed as decrease in exogenous H4R3 dimethylation level using GFP-tagged histone H4 as substrate after 24 hrs by Western blot analysis; assay type: cell-based
[4] = molecular target: T1, Protein arginine N-methyltransferase 3; assay: Binding affinity to beta galactosidase fused human PRMT3 (211 to 531 residues) expressed in human A549 cells after 6 hrs by InCELL hunter assay; assay type: cell-based

T1 sequence (O60678 whole entry, the tested form may be a part): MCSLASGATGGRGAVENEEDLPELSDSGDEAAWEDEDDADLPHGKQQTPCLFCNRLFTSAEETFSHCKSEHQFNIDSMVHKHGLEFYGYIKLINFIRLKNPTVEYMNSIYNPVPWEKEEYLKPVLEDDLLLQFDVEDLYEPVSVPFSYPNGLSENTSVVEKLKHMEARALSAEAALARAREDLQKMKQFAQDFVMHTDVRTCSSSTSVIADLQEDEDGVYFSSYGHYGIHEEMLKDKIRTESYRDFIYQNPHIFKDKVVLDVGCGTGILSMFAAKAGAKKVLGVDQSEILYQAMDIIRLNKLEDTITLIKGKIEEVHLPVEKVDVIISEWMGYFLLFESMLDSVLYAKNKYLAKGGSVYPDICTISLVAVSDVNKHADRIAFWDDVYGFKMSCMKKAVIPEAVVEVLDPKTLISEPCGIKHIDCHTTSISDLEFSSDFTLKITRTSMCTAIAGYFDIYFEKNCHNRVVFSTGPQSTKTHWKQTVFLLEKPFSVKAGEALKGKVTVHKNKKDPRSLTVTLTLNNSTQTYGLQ

Structure (SMILES) | IC50 [1] | EC50 [2] | IC50 [3] | EC50 [4]
O=C(NCC(=O)N1CC(F)(F)C(F)(F)C1)Nc1ccc2cnccc2c1 | 0.024 µM | 3.1 µM | 0.24 µM | 2.7 µM
O=C(NCCc1ccccc1)Nc1ccc2cnccc2c1 | 0.833 µM | – | – | –
CN1CCN(C(=O)CNC(=O)Nc2ccc3cnccc3c2)CC1 | > 1.9 µM | – | – | –
O=C(CNC(=O)Nc1ccc2cnccc2c1)NC1CC1 | 0.158 µM | – | – | –
O=C(NCCC1CC1)Nc1ccc2cnccc2c1 | > 8 µM | – | – | –
O=C(NCC(=O)N1C2CCC1CC2)Nc1ccc2cnccc2c1 | 0.046 µM | – | – | –
CON(C)C(=O)CNC(=O)Nc1ccc2cnccc2c1 | 0.476 µM | – | – | –

The next lines start with the values.

IC50 [1] | EC50 [2] | IC50 [3] | EC50 [4] | Structure (SMILES)
0.022 µM | – | – | – | O=C(NCC(=O)N1C2CCCC1CC2)Nc1ccc2cnccc2c1
0.019 µM | 2.7 µM | – | 1.6 µM | O=C(NCC(=O)N1CCCC1)Nc1cc2ccncc2cc1F
0.477 µM | – | – | – | O=C(CNC(=O)Nc1ccc2cnccc2c1)NC1CCCCC1
0.084 µM | – | – | – | O=C(NCC(=O)N1CCCCC1)Nc1ccc2cnccc2c1
